Experiment [1] can be described thus: DPPH radical scavenging activity of sample and control solutions. The conditions noted are these: for Scavenging activity: 0.2 mmol/L DPPH, 30 min, 517 nm, n = 3. The format is biochemical. The source says: In the DPPH molecule, due to the presence of multiple electron-withdrawing —NO2 and large π bonds of the benzene ring, nitrogen free radical is stabilized. Its methanol solution is purple and has a maximum absorption peak at 517 nm. After the addition of an antioxidant, DPPH captures an electron to be paired with the free electron, and the purple fades and turns into a yellow substance. The absorption at 517 nm disappears, and the degree of fading is quantitatively related to the number of electrons it captures. Based on this principle, a spectrophotometer is used to detect the change of the absorbance of the DPPH radical and the sample solution, and the ability of the sample to provide hydrogen atoms and scavenge free radicals can be measured.
Preparation of DPPH Solution: Measuring Exact Amount of 1,1-diphenyl-2-picryl hydrazyl (DPPH) and dissolving in methanol to prepare a 0.2 mmol/L DPPH Solution, Stored at 0° C. in Dark
Preparation of sample solutions: Vitamin C (positive control), bergenin thiodipripionic acid ester (sample), bergenin (control), thiodipropionic acid (control), mixture of bergenin and thiodipropionic acid (control). The sample solution was serially diluted with acetonitrile, and four groups of controls were separately dissolved in a test tube with a certain amount of methanol to prepare the same concentration gradient as the sample. Four corresponding groups of control solutions were prepared in the same way.
2 mL of the sample solution (Table 1: B), 2 mL 0.2 mmol/L DPPH solution was added, the mixture was mixed and reacted at room temperature in dark for 30 minutes, and methanol was then added to adjust final volume. The absorbance Ai was measured at 517 nm. 2 mL control solution and 2 mL methanol were mixed, and the absorbance Aj was measured. 2 mL DPPH solution and 2 mL methanol were mixed, and the absorbance A0 was measured.
2 mL of the control solutions (Table 1: C, D, E), 2 mL 0.2 mmol/L DPPH solution was added, the mixture was mixed and reacted at room temperature in dark for 30 minutes, and methanol was then added to adjust final volume. The absorbance Ai was measured at 517 nm. 2 mL control solution and 2 mL methanol were mixed, and the absorbance Aj was measured. 2 mL DPPH solution and 2 mL methanol were mixed, and the absorbance A0 was measured. The scavenging activity of the sample solution and control solutions is calculated according to the following calculation formula. Scavenging activity (%)=[1−(Ai−Aj)/Ao]*100%

Experiment [2] can be described thus: DPPH radical scavenging activity of Ganoderma lucidum spore oil with and without bergenin thiodipripionic acid ester. The settings on record: added at 0.2%, 0.4%, 0.6%. The experiment is classed as biochemical.

As to `COc1c(O)cc2c(c1O)[C@@H]1O[C@H](CO)[C@@H](O)[C@H](O)[C@H]1OC2=O` [C, Bergenin], the Scavenging activity in experiment [1] (0.04 mg/ml) is given as 8.63%; in experiment [1] (0.08 mg/ml) it was 12.25%; in experiment [1] (0.16 mg/ml), 19.80%; in experiment [1] (0.83 mg/ml), 25.59%; in experiment [1] (1.66 mg/ml) it was 41.86%; in experiment [1] (8.28 mg/ml), 59.12%. For the same molecule, the Scavenging activity in experiment [1] (16.56 mg/ml) came to 94.78%; in experiment [1] (24.84 mg/ml) it was 94.87%; in experiment [1] (33.12 mg/ml) it was 95.18%.

`COc1c(O)cc2c(c1O)C1OC(COC(=O)CCSCCC(=O)OCC3OC4c5c(cc(O)c(OC)c5O)C(=O)OC4C(O)C3O)C(O)C(O)C1OC2=O` (centres unmarked) [B, bis((3,4,8,10-tetrahydroxy-9-methoxy-6-oxo-2,3,4,4a,6,10b-hexahydropyrano[3,2-c]isochromen-2-yl)methyl) 3,3′-thiodipropionate]: the Scavenging activity in experiment [1] (0.04 mg/ml) is recorded as 28.01%; in experiment [1] (0.08 mg/ml) it was 37.78%; in experiment [1] (0.16 mg/ml) it was 51.33%; in experiment [1] (0.83 mg/ml), 60.22%; in experiment [1] (1.66 mg/ml), 76.33%; in experiment [1] (8.28 mg/ml), 82.56%. Further, the Scavenging activity is recorded as 95.67% in experiment [1] (16.56 mg/ml), 96.22% in experiment [1] (24.84 mg/ml) and 96.22% in experiment [1] (33.12 mg/ml). The “scavenging ability compared with bergenin (C), thiodipropionic acid (D) and their 2:1 mixture (E)” value in experiment [1] (at the same concentration) is recorded as “significantly better”. In addition, in experiment [2], the “effect on antioxidant capacity of Ganoderma lucidum spore oil” value is “improves the antioxidant capacity of Ganoderma lucidum spore oil”.

Regarding `O=C(O)CCSCCC(=O)O` [D, Thiodipropionic acid], the Scavenging activity was 1.96% in experiment [1] (0.04 mg/ml); 8.73% in experiment [1] (0.08 mg/ml); 9.07% in experiment [1] (0.16 mg/ml); 9.18% in experiment [1] (0.83 mg/ml); 9.41% in experiment [1] (1.66 mg/ml); 10.56% in experiment [1] (8.28 mg/ml). In addition, the Scavenging activity in experiment [1] (16.56 mg/ml) stood at 11.83%; in experiment [1] (24.84 mg/ml), 13.09%; in experiment [1] (33.12 mg/ml), 14.47%.

Regarding `O=C1O[C@H]([C@@H](O)CO)C(O)=C1O` [Vc, Vitamin C], the Scavenging activity in experiment [1] (0.04 mg/ml) was determined as 94.90%; in experiment [1] (0.08 mg/ml), 94.90%; in experiment [1] (0.16 mg/ml), 95.03%; in experiment [1] (0.83 mg/ml), 95.03%; in experiment [1] (1.66 mg/ml), 98.67%; in experiment [1] (8.28 mg/ml), 98.92%. Further, the Scavenging activity in experiment [1] (16.56 mg/ml), in experiment [1] (24.84 mg/ml) and in experiment [1] (33.12 mg/ml) was 99.00% in each case.
